Patent US10632089B2, “Tyrosinase activity inhibitor and external preparation for skin” (JO Cosmetics Co., Ltd., priority 2015, dated 2020)
Where a name gives a salt, the structure may show the parent alone. Read-outs that look alike come from different tables or passages of the source. Values belong to the molecule of their own block, whether it stands above or below them.

Experiments:
[1] = target: T1, tyrosinase (derived from mushrooms) (Agaricus bisporus, UniProt C7FF04); assay: Test for evaluating inhibition of tyrosinase activity (DOPA substrate, absorbance at 475 nm); type: biochemical
T1 construct: purchased Sigma
T1 sequence (C7FF04 whole entry): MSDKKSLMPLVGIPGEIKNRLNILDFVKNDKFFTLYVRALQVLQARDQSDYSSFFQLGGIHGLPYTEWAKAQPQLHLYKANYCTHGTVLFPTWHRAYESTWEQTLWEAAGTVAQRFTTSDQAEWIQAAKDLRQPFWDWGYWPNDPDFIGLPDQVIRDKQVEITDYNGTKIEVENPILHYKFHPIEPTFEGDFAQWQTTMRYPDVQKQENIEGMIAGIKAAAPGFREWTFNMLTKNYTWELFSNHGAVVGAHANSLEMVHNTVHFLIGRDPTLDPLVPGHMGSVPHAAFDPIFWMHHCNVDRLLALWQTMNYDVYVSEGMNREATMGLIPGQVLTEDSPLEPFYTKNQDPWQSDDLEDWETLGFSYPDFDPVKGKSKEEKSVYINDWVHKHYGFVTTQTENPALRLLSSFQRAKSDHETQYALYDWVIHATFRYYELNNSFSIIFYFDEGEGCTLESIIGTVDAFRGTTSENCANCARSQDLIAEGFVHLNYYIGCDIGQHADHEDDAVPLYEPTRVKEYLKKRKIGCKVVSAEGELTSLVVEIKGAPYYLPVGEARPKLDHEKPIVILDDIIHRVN
Procedure: (§1) After 2 minutes of the addition, the test solution was subjected to measurement of absorbance at 475 nm. Thus-obtained absorbance value was defined as D1. As a control, the same measurement was conducted on a test solution in which each sample was replaced with purified water, and the obtained absorbance value was defined as D2. An inhibition rate of tyrosinase activity was calculated by the following formula.

[2] = system: tyrosinase (derived from mushrooms); assay: as above; type: biochemical; conditions: for Tyrosinase activity inhibition rate in the case of using both components/Sum of tyrosinase activity inhibition rate in the case of using each component alone: no second component; for Inhibition rate of tyrosinase activity in the case of conbining human manganese SOD/Inhibition rate of tyrosinase activity in the case without addition of human manganese SOD: (B-1) 0 unit/mL
Procedure: as §1

[3] = see paragraphs 0060, 0061 and 0072 of Patent Document 6; cited from earlier work

Inhibition rate of tyrosinase activity (%), (B) component only ([1]; (B-2) component only, 2.5 mg/mL): 40.5%
Molecule: O=C1O[C@H]([C@@H](O)CO)C([O-])=C1OS(=O)(=O)[O-].[Na+].[Na+] [Disodium ascorbyl sulfate, reference compound]

Molecule: Cc1ncc(CO)c(CO)c1O [Pyridoxine hydrochloride, pyridoxine hydrochloride, reference compound]
inhibition at 5000 µg/mL ([1]; read-out: Inhibition rate of tyrosinase activity (%)): 42.9%

inhibition rate of tyrosinase activity ([1]; ascorbic acid derivative (ascorbyl glucoside) solely, 2.0% by mass): 21.9% | inhibition at 5000 µg/mL ([1]; ascorbyl glucoside solely, 5 mg/mL, read-out: Inhibition rate of tyrosinase activity (%)): 8.4% | inhibition at 10000 µg/mL ([1]; ascorbyl glucoside solely, 10 mg/mL, read-out: Inhibition rate of tyrosinase activity (%)): 15.4% | inhibition at 20000 µg/mL ([1]; ascorbyl glucoside solely, 20 mg/mL, read-out: Inhibition rate of tyrosinase activity (%)): 26.8%
Molecule: O=C1O[C@H]([C@@H](O)CO)C(O)=C1O[C@H]1O[C@H](CO)[C@@H](O)[C@H](O)[C@H]1O [ascorbyl glucoside, 2-O-α-D-glucopyranosyl-L-ascorbic acid]

inhibition rate of tyrosinase activity ([1]; arbutin solely, 3.0% by mass): 71.3%
Molecule: OC[C@H]1O[C@@H](Oc2ccc(O)cc2)[C@H](O)[C@@H](O)[C@@H]1O [arbutin, reference compound]

Inhibition rate of tyrosinase activity (%), (B) component only ([1]; (B-2) component only, 5 mg/mL): 15.6%
Molecule: O=C1O[C@H]([C@@H](O)CO)C([O-])=C1OP(=O)([O-])[O-].[Na+].[Na+].[Na+] [Sodium ascorbyl phosphate, sodium ascorbyl phosphate, reference compound]

Molecule: O=C1O[C@H]([C@@H](O)CO)C(O)=C1O [Ascorbic acid, ascorbic acid, reference compound]
inhibition at 10 µg/mL ([1]; read-out: Inhibition rate of tyrosinase activity (%), (B) component only): 28.7%

Inhibition rate of tyrosinase activity (%), (B) component only ([1]; (B-2) component only, 5 mg/mL): 11.1%
Molecule: O=C1O[C@H]([C@@H](O)CO)C([O-])=C1OP(=O)([O-])[O-].O=C1O[C@H]([C@@H](O)CO)C([O-])=C1OP(=O)([O-])[O-].[Mg+2].[Mg+2].[Mg+2] [Magnesium ascorbyl phosphate, magnesium ascorbyl phosphate, reference compound]

Tyrosinase activity inhibition rate in the case of using both components/Sum of tyrosinase activity inhibition rate in the case of using each component alone ([2]; α-lipoic acid 4.31 μg/mL): 1.00 | Inhibition rate of tyrosinase activity (%) ([1]; α-lipoic acid solely, 4.31 μg/mL): 0.7%
Molecule: O=C(O)CCCCC1CCSS1 (stereo not drawn) [α-lipoic acid, 6,8-dithiooctanoic acid, reference compound]

inhibition at 2500 µg/mL ([1]; (B-2) component only, 2.5 mg/mL, read-out: Inhibition rate of tyrosinase activity (%), (B) component only): 29.9%
Molecule: CCOC1=C(O)C(=O)O[C@@H]1[C@@H](O)CO [3-O-ethylascorbic acid, reference compound]

Inhibition rate of tyrosinase activity in the case of conbining human manganese SOD/Inhibition rate of tyrosinase activity in the case without addition of human manganese SOD ([2]; (A) 1.08 μg/mL): 1.00 | Tyrosinase activity inhibition rate in the case of using both components/Sum of tyrosinase activity inhibition rate in the case of using each component alone ([2]; (A) 1.08 μg/mL): 1.00 | Inhibition rate of tyrosinase activity in the case of conbining human manganese SOD/Inhibition rate of tyrosinase activity in the case without addition of human manganese SOD ([2]; (A) 2.15 μg/mL): 1.00 | Tyrosinase activity inhibition rate in the case of using both components/Sum of tyrosinase activity inhibition rate in the case of using each component alone ([2]; (A) 2.15 μg/mL): 1.00 | Inhibition rate of tyrosinase activity in the case of conbining human manganese SOD/Inhibition rate of tyrosinase activity in the case without addition of human manganese SOD ([2]; (A) 3.23 μg/mL): 1.00 | Inhibition rate of tyrosinase activity in the case of conbining human manganese SOD/Inhibition rate of tyrosinase activity in the case without addition of human manganese SOD ([2]; (A) 4.31 μg/mL): 1.00 | Inhibition rate of tyrosinase activity (%) ([1]; histidine dithiooctanamide (Na/zinc) solely, 1.08 μg/mL (2.5 μM)): 13.2% | Inhibition rate of tyrosinase activity (%) ([1]; histidine dithiooctanamide (Na/zinc) solely, 2.15 μg/mL (5 μM)): 25.3% | Inhibition rate of tyrosinase activity (%) ([1]; histidine dithiooctanamide (Na/zinc) solely, 3.23 μg/mL (7.5 μM)): 53.6% | Inhibition rate of tyrosinase activity (%) ([1]; histidine dithiooctanamide (Na/zinc) solely, 4.31 μg/mL (10 μM)): 68.9%
Molecule: zinc chelate compound of N-(6,8-dimercaptooctanoyl)-L-histidine sodium salt [histidine dithiooctanamide (Na/zinc)]

B1: MHS:Mn-SOD: human mutant manganese SOD, third amino acid from N-terminus serine substituted with arginine (Patent Document 6) (protein, UniProt P04179 25-222, looked up, variant S3R)
Superoxide dismutase [Mn], …: KHRLPDLPYDYGALEPHINAQIMQLHHSKHHAAYVNNLNVTEEKYQEALAKGDVTAQIALQPALKFNGGGHINHSIFWTNLSPNGGGEPKGELLEAIKRDFGSFDKFKEKLTAASVGVQGSGWGWLGFNKERGHLQIAACPNQDPLQGTTGLIPLLGIDVWEHAYYLQYKNVRPDYLKAIWNVINWENVTERYMACKK
isoelectric point [3]: about 8.2

Inhibition rate of tyrosinase activity (%) ([1]; human manganese SOD solely, 3 units/mL): 4.53% | Inhibition rate of tyrosinase activity (%) ([1]; human manganese SOD solely, 3 units/mL, listed as (B-1) component): 4.5% | Inhibition rate of tyrosinase activity (%) ([1]; human manganese SOD solely, 15 units/mL): 3.74% | Inhibition rate of tyrosinase activity (%) ([1]; human manganese SOD solely, 15 units/mL, listed as (B-1) component): 3.7% | Inhibition rate of tyrosinase activity (%) ([1]; human manganese SOD solely, 150 units/mL): 4.66% | Inhibition rate of tyrosinase activity (%) ([1]; human manganese SOD solely, 150 units/mL, listed as (B-1) component): 4.7%
B2: human manganese SOD: human manganese superoxide dismutase, "yeast extract (SOD)" commercially available from Biox Technologies, 3,000 units/mL (protein, UniProt P04179 25-222, looked up)
Superoxide dismutase [Mn], …: KHSLPDLPYDYGALEPHINAQIMQLHHSKHHAAYVNNLNVTEEKYQEALAKGDVTAQIALQPALKFNGGGHINHSIFWTNLSPNGGGEPKGELLEAIKRDFGSFDKFKEKLTAASVGVQGSGWGWLGFNKERGHLQIAACPNQDPLQGTTGLIPLLGIDVWEHAYYLQYKNVRPDYLKAIWNVINWENVTERYMACKK
